Results published in ChEMBL document CHEMBL1156046, “Amiodarone and its putative metabolites fail to activate wild type hTAAR1” (Bioorg Med Chem Lett, 2009).
Active and inactive are the calls of the source. No cut-off for these calls is given here.

Assays:
[1] = biological target: T1, Trace amine-associated receptor 1 (Homo sapiens) (UniProt Q96RJ0); test: Activation of human TAAR1 expressed in CHOK1 cells assessed as cAMP accumulation at 0.1 to 1 uM; assay type: functional, cell-based; conditions: CHO-K1
T1 sequence (whole entry): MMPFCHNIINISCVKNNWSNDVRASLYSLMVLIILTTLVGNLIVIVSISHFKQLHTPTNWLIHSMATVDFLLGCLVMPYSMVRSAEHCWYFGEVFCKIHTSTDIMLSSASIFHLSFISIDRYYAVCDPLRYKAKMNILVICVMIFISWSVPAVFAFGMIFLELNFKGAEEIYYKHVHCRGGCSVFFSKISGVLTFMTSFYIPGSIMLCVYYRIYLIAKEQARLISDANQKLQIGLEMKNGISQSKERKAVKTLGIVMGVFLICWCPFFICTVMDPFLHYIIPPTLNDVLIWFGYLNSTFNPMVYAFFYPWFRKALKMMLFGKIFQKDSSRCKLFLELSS

CHO [2] = test: Effect on calcium mobilization in CHO cells stably expressing Galpha16; assay type: functional, cell-based; conditions: Cricetulus griseus
[3] = biological target: T1, Trace amine-associated receptor 1 (Homo sapiens); test: Activation of human TAAR1 expressed in CHOK1 cells coexpressing Galpha16 assessed as calcium accumulation at 0.1 to 1 uM relative to beta-phenethylamine; assay type: functional, cell-based; conditions: CHO-K1
[4] = biological target: T1, Trace amine-associated receptor 1 (Homo sapiens); test: Activation of human TAAR1 expressed in CHOK1 cells assessed as cAMP accumulation at 10 uM relative to beta-phenethylamine; assay type: functional, cell-based; conditions: CHO-K1
[5] = biological target: T2, Trace amine-associated receptor 1 (Homo sapiens, UniProt Q96RJ0); test: Activation of human TAAR1 expressed in CHOK1 cells coexpressing Galpha16 assessed as calcium accumulation; assay type: functional, cell-based, CHO-K1
T2 sequence (Q96RJ0 whole entry): T1 sequence (whole entry)

[6] = biological target: T1, Trace amine-associated receptor 1 (Homo sapiens); test: Activation of human TAAR1 expressed in CHOK1 cells coexpressing Galpha16 assessed as calcium accumulation relative to control; assay type: functional, cell-based; conditions: CHO-K1
CHO [7] = test: Effect on calcium mobilization in CHO cells stably expressing Galpha16 at 10 uM relative to beta-phenethylamine; assay type: functional, Cricetulus griseus

Row | Structure (SMILES) | Activity [1] | Activity [3] | Activity [4] [%] | also measured
1 | CCCCc1oc2ccccc2c1C(=O)c1cc(I)c(OCCN(CC)CC)c(I)c1 | inactive | – | – | Activity (CHO [2]): inactive
2 | CCCCc1oc2ccccc2c1C(=O)c1cc(I)c(OCCN)c(I)c1 | inactive | inactive | < 5 | –
3 | CCCCc1oc2ccccc2c1C(=O)c1ccc(OCCNCC)c(I)c1 | inactive | inactive | – | –
4 | CCCCc1oc2ccccc2c1C(=O)c1ccc(OCCN(CC)CC)cc1 | inactive | inactive | – | –
5 | CCCCc1oc2ccccc2c1C(=O)c1ccc(OCCNCC)cc1 | inactive | inactive | < 5 | –
6 | NCCOc1ccccc1 | – | – | – | EC50 [5]: 1790 nM; Emax [6]: 41%
7 | CCCCc1oc2ccccc2c1C(=O)c1ccc(OCCN(CC)CC)c(I)c1 | inactive | inactive | – | –
8 | CCCCc1oc2ccccc2c1C(=O)c1cc(I)c(OCCNCC)c(I)c1 [DESETHYLAMIODARONE] | inactive | inactive | – | Activity (CHO [7]): 44%
9 | CCCCc1oc2ccccc2c1C(=O)c1ccc(OCCN)cc1 | inactive | inactive | – | –
10 | CCCCc1oc2ccccc2c1C(=O)c1ccc(OCCN)c(I)c1 | inactive | inactive | < 5 | –
